Data from US10226451B2, “Substituted bicyclic compounds as bromodomain inhibitors” (ZENITH EPIGENETICS LTD, priority 2013, dated 2019).

Assays:
[1] = test system: hIL-6 mRNA in U937 cells; experiment: Inhibition of hIL-6 mRNA transcription in LPS-stimulated U937 cells; type: cell-based; conditions: Homo sapiens, U-937, PMA-differentiated U937 cells, LPS 1 ug/mL, 3 h, read-out: IL-6 activity
Experimental: In this example, hIL-6 mRNA in tissue culture cells were quantitated to measure the transcriptional inhibition of hIL-6 when treated with a compound of the present disclosure.
Human leukemic monocyte lymphoma U937 cells (CRL-1593.2) were plated at a density of 3.2×10^4 cells per well in a 96-well plate in 100 μL RPMI-1640 containing 10% FBS and penicillin/streptomycin, and differentiated into macrophages for 3 days in 60 ng/mL PMA ([…]) at 37° C. in 5% CO2 prior to the addition of compound. The cells were pretreated for 1 h with increasing concentrations of test compound in 0.1% DMSO prior to stimulation with 1 ug/mL lipopolysaccharide from Escherichia coli. Triplicate wells were used for each concentration. The cells were incubated at 37° C., 5% CO2 for 3 h before the cells were harvested. At time of harvest, media was removed and cells were rinsed in 200 μL PBS. Cells were harvested using the mRNA Catcher PLUS kit according to manufacturer's instructions. The eluted mRNA was then used in a one-step quantitative real-time PCR reaction using components of the RNA UltraSense™ One-Step Kit (Life Technologies) together with Applied Biosystems TaqMan® primer-probes for hIL-6 and Cyclophilin. Real-time PCR plates were run on a ViiA™7 real time PCR machine (Applied Biosystems), data was analyzed, normalizing the Ct values for hIL-6 to an internal control, prior to determining the fold expression of each sample, relative to the control.

[2] = test system: Human AML MV-4-11 cells; experiment: Inhibition of cell proliferation in MV4-11 cells (CellTiter Aqueous One); type: cell-based; conditions: 72 h
Experimental: In this example, cell titer in MV4-11 cells were quantitated to measure the inhibition of proliferation when treated with a compound of the present disclosure.
MV4-11 cells (CRL-9591) were plated at a density of 5×10^4 cells per well in 96 well flat bottom plates and treated with increasing concentrations of test compound or DMSO (0.1%) in IMDM media containing 10% FBS and penicillin/streptomycin. Triplicate wells were used for each concentration and a well containing only media was used as a control. Plates were incubated at 37° C., 5% CO2 for 72 h before adding 20 μL of the CellTiter Aqueous One Solution (Promega) to each well and incubated at 37° C., 5% CO2 for an additional 3-4 h. The absorbance was read at 490 nm in a spectrophotometer and the percentage of cell titer relative to DMSO-treated cells was calculated after correcting for background by subtracting the blank well's signal. IC50 values were calculated using the Graph Pad Prism software.

[3] = test system: c-myc in Human AML MV4-11 cells; experiment: Inhibition of c-MYC expression (mRNA, real-time PCR) in MV4-11 cells; type: cell-based; conditions: 3 h, mRNA by real-time PCR
Experimental: MV4-11 cells (CRL-9591) were plated at a density of 2.5×10^4 cells per well in 96 well U-bottom plates and treated with increasing concentrations of test compound or DMSO (0.1%) in IMDM media containing 10% FBS and penicillin/streptomycin, and incubated for 3 h at 37° C. Triplicate wells were used for each concentration. Cells were pelleted by centrifugation and harvested using the mRNA Catcher PLUS kit according to manufacturer's instructions. The eluted mRNA isolated was then used in a one-step quantitative real-time PCR reaction, using components of the RNA UltraSense™ One-Step Kit (Life Technologies) together with Applied Biosystems TaqMan® primer-probes for cMYC and Cyclophilin. Real-time PCR plates were run on a ViiA™7 real time PCR machine (Applied Biosystems), data was analyzed, normalizing the Ct values for hMYC to an internal control, prior to determining the fold expression of each sample, relative to the control.

[4] = biological target: T1, Brd4 bromodomain 1 (BRD4(1)) (Homo sapiens, UniProt O60885); experiment: Inhibition of tetra-acetylated histone H4 binding to Brd4 bromodomain 1 (HTRF/FRET); conditions: tetra-acetylated histone H4 peptide, His-tagged bromodomain 200 nM, 2 h
T1 construct: made in house; host or cells: E. coli BL21(DE3)
Experimental: Proteins were cloned and overexpressed with a N-terminal 6×His tag, then purified by nickel affinity followed by size exclusion chromatography. Briefly, E. coli BL21(DE3) cells were transformed with a recombinant expression vector encoding N-terminally Nickel affinity tagged bromodomains from Brd2, Brd3, Brd4. Cell cultures were incubated at 37° C. with shaking to the appropriate density and induced overnight with IPTG. The supernatant of lysed cells was loaded onto Ni-IDA column for purification. Eluted protein was pooled, concentrated and further purified by size exclusion chromatography. Fractions representing monomeric protein were pooled, concentrated, aliquoted, and frozen at −80° C. for use in subsequent experiments.
Binding of tetra-acetylated histone H4 and BET bromodomains was confirmed by a Homogenous Time Resolved Fluorescence Resonance Energy Transfer (HTRF®) method. N-terminally His-tagged bromodomains (200 nM) and biotinylated tetra-acetylated histone H4 peptide (25-50 nM, Millipore) were incubated in the presence of Europium Cryptate-labeled streptavidin (Cisbio Cat. #610SAKLB) and XL665-labeled monoclonal anti-His antibody (Cisbio Cat. #61HISXLB) in a white 96 well microtiter plate (Greiner). For inhibition assays, serially diluted test compound was added to these reactions in a 0.2% final concentration of DMSO. Duplicate wells were used for each concentration tested. Final buffer concentrations were 30 mM HEPES pH 7.4, 30 mM NaCl, 0.3 mM CHAPS, 20 mM phosphate pH 7.0, 320 mM KF, 0.08% BSA. After a 2 h incubation at room temperature, fluorescence was measured at 665 and 620 nm with a SynergyH4 plate reader (Biotek). The binding inhibitory activity was shown by a decrease in 665 nm relative to 620 nm fluorescence. IC50 values were determined from a dose response curve.

SMILES | IC50 [1] [nM] | IC50 [2] [nM] | IC50 [3] [nM] | IC50 [4] [nM]
Cc1nc(C)c(-c2cc(-c3c(C)noc3C)cc3[nH]c(=O)n(C)c23)s1 [Example Compound 44, 5-(3,5-dimethylisoxazol-4-yl)-7-(2,4-dimethylthiazol-5-yl)-1-methyl-1H-benzo[d]imidazol-2(3H)-one] | 300 to 3000 | 3000 to 30000 | 300 to 3000 | 300 to 3000
Cc1noc(C)c1-c1cc(-c2ccccc2Cl)c2c(c1)[nH]c(=O)n2C [Example Compound 37, 7-(2-chlorophenyl)-5-(3,5-dimethylisoxazol-4-yl)-1-methyl-1H-benzo[d]imidazol-2(3H)-one] | – | 300 to 3000 | 300 to 3000 | 300 to 3000
COc1ccc(F)c(-c2cc(-c3c(C)noc3C)cc3[nH]c(=O)n(C)c23)c1 [Example Compound 41, 5-(3,5-dimethylisoxazol-4-yl)-7-(2-fluoro-5-methoxyphenyl)-1-methyl-1H-benzo[d]imidazol-2(3H)-one] | – | – | – | ≤ 300
Cc1noc(C)c1-c1cc(-c2cccc(C#N)c2C)c2c(c1)[nH]c(=O)n2C [Example Compound 14, 3-(6-(3,5-dimethylisoxazol-4-yl)-3-methyl-2-oxo-2,3-dihydro-1H-benzo[d]imidazol-4-yl)-2-methylbenzonitrile] | – | 300 to 3000 | ≤ 300 | ≤ 300
Cc1noc(C)c1-c1cc(-c2cnc3ccccc3c2)c2c(c1)[nH]c(=O)n2C [Example Compound 36, 5-(3,5-dimethylisoxazol-4-yl)-1-methyl-7-(quinolin-3-yl)-1H-benzo[d]imidazol-2(3H)-one] | – | 300 to 3000 | 300 to 3000 | 300 to 3000
COc1cccc(-c2cc(-c3c(C)noc3C)cc3[nH]c(=O)n(C)c23)c1F [Example Compound 43, 5-(3,5-dimethylisoxazol-4-yl)-7-(2-fluoro-3-methoxyphenyl)-1-methyl-1H-benzo[d]imidazol-2(3H)-one] | – | – | – | 300 to 3000
Cc1noc(C)c1-c1cc(-c2ccc3ocnc3c2)c2c(c1)[nH]c(=O)n2C [Example Compound 46, 7-(benzo[d]oxazol-5-yl)-5-(3,5-dimethylisoxazol-4-yl)-1-methyl-1H-benzo[d]imidazol-2(3H)-one] | – | – | – | ≤ 300
Cc1noc(C)c1-c1cc(-c2c(Cl)cncc2Cl)c2c(c1)[nH]c(=O)n2C [Example Compound 35, 7-(3,5-dichloropyridin-4-yl)-5-(3,5-dimethylisoxazol-4-yl)-1-methyl-1H-benzo[d]imidazol-2(3H)-one] | 300 to 3000 | – | – | ≤ 300

Next, values leading:

IC50 [1] [nM] | IC50 [2] [nM] | IC50 [3] [nM] | IC50 [4] [nM] | SMILES
300 to 3000 | 300 to 3000 | ≤ 300 | ≤ 300 | Cc1ccccc1-c1cc(-c2c(C)noc2C)cc2[nH]c(=O)n(C)c12 [Example Compound 40, 5-(3,5-dimethylisoxazol-4-yl)-1-methyl-7-(o-tolyl)-1H-benzo[d]imidazol-2(3H)-one]
– | 300 to 3000 | ≤ 300 | ≤ 300 | Cc1ccncc1-c1cc(-c2c(C)noc2C)cc2[nH]c(=S)[nH]c12 [Example Compound 24, 6-(3,5-dimethylisoxazol-4-yl)-4-(4-methylpyridin-3-yl)-1H-benzo[d]imidazole-2-thiol]
– | – | – | ≤ 300 | COc1ccc(Cl)cc1-c1cc(-c2c(C)noc2C)cc2[nH]c(=O)n(C)c12 [Example Compound 42, 7-(5-chloro-2-methoxyphenyl)-5-(3,5-dimethylisoxazol-4-yl)-1-methyl-1H-benzo[d]imidazol-2(3H)-one]
≤ 300 | 300 to 3000 | 300 to 3000 | ≤ 300 | Cc1ncccc1Oc1cc(-c2c(C)noc2C)cc2[nH]c(=O)n(C)c12 [Example Compound 31, 5-(3,5-dimethylisoxazol-4-yl)-1-methyl-7-((2-methylpyridin-3-yl)oxy)-1H-benzo[d]imidazol-2(3H)-one]
≤ 300 | 300 to 3000 | ≤ 300 | ≤ 300 | Cc1n[nH]c(C)c1-c1cc(-c2c(C)noc2CO)cc2[nH]c(=O)n(C)c12 [Example Compound 32, 7-(3,5-dimethyl-1H-pyrazol-4-yl)-5-(5-(hydroxymethyl)-3-methylisoxazol-4-yl)-1-methyl-1H-benzo[d]imidazol-2(3H)-one]
– | 300 to 3000 | 300 to 3000 | ≤ 300 | Cc1noc(C)c1-c1cc(-c2c(C)noc2C)c2c(c1)n(C)c(=O)n2C [Example Compound 15, 4,6-bis(3,5-dimethylisoxazol-4-yl)-1,3-dimethyl-1H-benzo[d]imidazol-2(3H)-one]
≤ 300 | 300 to 3000 | ≤ 300 | ≤ 300 | Cc1ccncc1-c1cc(-c2c(C)noc2C)cc2[nH]c(=O)n(C)c12 [Example Compound 6, 5-(3,5-dimethylisoxazol-4-yl)-1-methyl-7-(4-methylpyridin-3-yl)-1H-benzo[d]imidazol-2(3H)-one]
≤ 300 | 300 to 3000 | ≤ 300 | ≤ 300 | Cc1ncccc1Nc1cc(-c2c(C)noc2C)cc2[nH]c(=O)n(C)c12 [Example Compound 27, 5-(3,5-dimethylisoxazol-4-yl)-1-methyl-7-((2-methylpyridin-3-yl)amino)-1H-benzo[d]imidazol-2(3H)-one]
300 to 3000 | 300 to 3000 | – | ≤ 300 | COc1ccc(C)cc1-c1cc(-c2c(C)noc2C)cc2[nH]c(=O)n(C)c12 [Example Compound 12, 5-(3,5-dimethylisoxazol-4-yl)-7-(2-methoxy-5-methylphenyl)-1-methyl-1H-benzo[d]imidazol-2(3H)-one]
– | 300 to 3000 | ≤ 300 | ≤ 300 | COc1ccncc1-c1cc(-c2c(C)noc2C)cc2[nH]c(=O)n(C)c12 [Example Compound 17, 5-(3,5-dimethylisoxazol-4-yl)-7-(4-methoxypyridin-3-yl)-1-methyl-1H-benzo[d]imidazol-2(3H)-one]
– | 300 to 3000 | ≤ 300 | ≤ 300 | Cc1ccc(C#N)cc1-c1cc(-c2c(C)noc2C)cc2[nH]c(=S)[nH]c12 [Example Compound 25, 3-(6-(3,5-dimethylisoxazol-4-yl)-2-thioxo-2,3-dihydro-1H-benzo[d]imidazol-4-yl)-4-methylbenzonitrile]
